Laboratory results: patent US9096643B2, “Cell-protective peptides and uses thereof” (priority 2010, dated 2015)
No end group written: not given here.

Assays:
human iPS cells [1] = assay: iPS cell colony number following passage; type: cell-based; conditions: vs PBS control, FIG. 11
Method: (§1) The human iPS cells (BJ1D and 0901B) were obtained from the Ontario iPSC Facility and used following the hiPS cell research guidelines of the University of Toronto as described by Hotta et al. Nat. Protoc. 4, 1828-1844 (2009)), unless specified otherwise. Cells were cultured on a feeder layer of MEF cells (Mount Sinai Hospital Toronto, inactivated with 10 μg/ml mitomycin C and seeded at 1.8×10^5 per 3.5 cm dish). For single cell cultures, hiPS cell colonies were dissociated in 0.25% Trypsin-EDTA (Invitrogen) for 5 min, followed by trituration with a pipette. To ensure a single-cell suspension, the dissociated cells were passed through a 40 μm cell strainer (BD Falcon) and seeded onto MEF plates at 10 cells/ml, 10 cm plates. Cells were allowed to grow for 7 days and the total number of colonies was counted. In the treated groups, QHREDGS (Biomatik) or DGQESHR (Biomatik) dissolved in PBS (Lonza), were added at the reported concentrations to culture media at the onset of the first treatment passage and replenished with each media change. Media was changed by 100% every day. Peptides and controls were included during dissociation and passaging. Cells were analyzed after 5 passages in continuous treatment with 50 μM QHREDGS, 50 μM DGQESHR, or PBS, unless specified otherwise.
To determine the optimal concentration of QHREDGS for iPSC expansion, a dose-response experiment was performed. Cells were treated with 5 μM, 50 μM, or 500 μM of QHREDGS peptide, or 500 μM scrambled peptide (DGQESHR) in PBS with a PBS treated control for five passages and stained for CFDA-Live/PI-Dead. Live cells were counted using the cell counter plug in for ImageJ.

[2] = test system: Rat neonatal cardiomyocytes; assay: Hydrogen peroxide treatment, Trypan blue viability (monolayer); type: cell-based; conditions: 500 μM peptide 1.5 hr, 100 μM H2O2 10 min, FIG. 5A
Method: Rat neonatal cardiomyocytes were incubated for 1.5 hr with 500 μM QHREDGS, scrambled (scram) QHREDGS peptide (DGQESHR), or PBS control (PBS); 200 nM ang 1 or its matched buffer control [0.1% bovine serum albumin (BSA) in PBS] in the culture medium. The culture medium consisted of Dulbecco's Modified Eagle's Medium (DMEM) with 0.5% BSA and cytosine-β-D-arabinofuranoside (anti-proliferative). Reactive oxygen species were increased by addition of 100 μM H2O2 for 10 min (37° C., 5% CO2) (N=6/group). Cell viability was measured using a Trypan blue stain. Trypan blue dye is impermeable to viable cells, but enters dead/damaged cells with impaired membrane integrity, staining cells blue.

human iPS cells BJ1D [3] = assay: iPS cell dose-response, CFDA-Live/PI-Dead live cell count; type: cell-based; conditions: 50 μM soluble peptide, passage 5, vs PBS, p=0.028, FIG. 10
Method: as §1, with “In the treated groups, QHREDGS (Biomatik) or DGQESHR (Biomatik) dissolved in PBS (Lonza), were added at the reported concentrations to culture media at the onset of the first treatment passage and replenished with each media change. Media was changed by 100% every day. Peptides and controls were included during dissociation and passaging.” left out
Human iPS cells were treated for 5 passages and stained for CFDA-Live/PI-Dead as described in Rask et al. J. Biomed. […] Live cells were counted using the cell counter plug in for ImageJ Immunohistochemistry was performed as described above (Rask et al., ibid). […]
To determine the optimal concentration of QHREDGS for iPSC expansion, a dose-response experiment was performed. […] Live cells were counted using the cell counter plug in for ImageJ.

human iPS cells [4] = assay: EB differentiation of treated iPS cells; type: cell-based; conditions: after 5 passages of treatment, EB protocol
Method: Following 5 passages in continuous treatment, iPS cells were collected and differentiated into embryoid bodies (EB) containing cells of all three germ layers as described Itskovitz-Eldor, J. et al. Mol. Med. 6, 88-95 (2000). For further differentiation and analysis, EBs were plated onto 0.2% gelatin coated plates for another 10 days for attachment and fixed in 4% para-formaldehyde (Sigma) for immunohistochemistry.

[5] = test system: Rat neonatal cardiomyocytes; assay: ATP assay (CellTiter-Glo) in serum-starved cardiomyocytes; type: cell-based; conditions: 500 μM peptide, 1 d
Method: Rat neonatal cardiomyocytes were incubated with PBS (control), 500 μM QHREDGS, scrambled QHREDGS peptide, GRGDSP peptide or 400 nM ang 1 or ang2 in DMEM/0.5% BSA/cytosine-β-D-arabinofuranoside (37° C., 5% CO2, 1 d). ATP levels were quantified using the CellTiter-Glo Luminescent Assay (Promega) as per manufacturer's instructions (N=6/group). Luminescence was measured using a Wallac 1420 microplate reader.

human iPS cells BJ1D [6] = assay: Pluripotency markers Oct4 and SSEA4 by FACS; type: cell-based; conditions: 50 μM, five passages, FIG. 14
Method: Analytical flow cytometry was performed on a FACSCalibur flow cytometer (BD Biosciences) as described in Chiang et al. Acta Biomater. 6, 1904-1916 (2010), with an additional permeabilization step with 0.25% Triton-X (Sigma) for 10 min at 4° C. Oct4 (Millipore), SSEA-4 (Developmental Studies Hybridoma Bank) and Ki67 (Millipore) and all secondary antibodies (Jackson ImmunoResearch) were used at 1:100.

[7] = test system: neonatal rat CMs (heart cells); assay: Live/dead (CFDA/PI) staining of heart cells on coated surfaces; type: cell-based, rat (Sprague-Dawley); conditions: one and three days of incubation, FIG. 2
Method: The day before cells were ready to be seeded, the surfaces in the 12-well plates were sterilized by germicidal UV illumination overnight. The PBS surrounding the surfaces was then aspirated off and 100,000 live cells were pipetted onto each surface in 100 μL of culture media. These surfaces were left in the incubator for 20 to 30 min to allow the cells to begin to adhere, and then supplemented with 1 mL of warm CM media. The cells were cultivated for 8 days, with 100% culture media change every 2-3 days. The initial seeding density of heart cells on peptide-chitosan coated surfaces was 88 cells/mm^2. […] Each type of surface was created in triplicate.
Live dead staining was performed using 5-carboxyfluorescein diacetate acetoxymethly ester (CFDA, Invitrogen), which stains live cells green, and with propidium iodide (PI, Invitrogen), which stains dead cells red, according to the manufacturer's instruction. The samples were incubated in 10 μM of CFDA and 75 μL/mL of PI in PBS for 45 min at 37° C. Three different surfaces were analyzed for each type of sample (N=3) and a total of five images were taken for each surface to get a full representation of the viability of the cells on a surface. In order to quantify the viability, the numbers of live and dead cells were counted separately using the cell counter plug-in on ImageJ.

Substance | increase in colony number (human iPS cells [1]; 50 μM) [%] | increase in colony number (human iPS cells [1]; 50 μM, on average) | increase in colony number (human iPS cells [1]; 500 μM) [%] | cardiomyocyte viability after exposure to H2O2 [2] | number of viable human iPS cells (human iPS cells BJ1D [3]) | differentiation into neural, mesodermal and endodermal cells (human iPS cells [4]) | cardiac myocyte ATP levels [5] | expression of Oct4 and SSEA4 (FACS) (human iPS cells BJ1D [6]) | cell viability (live/dead) [7]
QHREDGS (angiopoietin 1 peptide) | 14.3 | greater than 10 colonies/well | 40 | maintain cardiomyocyte viability | significant increase | retained the competence to differentiate | substantially increased | comparable to both PBS and DGQESHR scrambled peptide controls | –
Az-chitosan-QHREDGS: QHREDGS peptide covalently conjugated to Az-chitosan by EDC chemistry (also: covalently conjugated to Az-chitosan by EDC chemistry, site not given here) | – | – | – | – | – | – | – | – | significantly greater cell viability
